Measurements reported in publication PMC12801676, “Guanidino compounds with native GABA(A) δ receptor selectivity: a tale of homeostatic compensation in δ-KO mice” (BMC Neuroscience, 2025).
Several values for one entry are separate records, joined by “and”; a condition that tells them apart may be missing. Equal values may be shown once. Read-outs that look alike come from different tables or passages of the source.

Tests used:
[1] = target: GABARs in WT mouse forebrain membranes; experiment: [3H]muscimol displacement, WT forebrain membranes; assay type: binding; conditions: for IC50: 5 nM [3H]muscimol; for [3H]muscimol (5 nM) displacement: concentrations up to 0.3 mM, mouse forebrain
Protocol: (§1) Brain (sans cerebellum) membranes from WT and δ-KO mice were prepared as described and stored frozen at -70 °C. After thawing, membranes were washed once in assay buffer (50 mM Tris-HCl, pH 7.4) and incubated for 40 min with 5 nM [^3H]muscimol in assay buffer in a total volume of 300 µl at room temperature. […] Three milliliters of Optiphase HiSafe 3 scintillation fluid (Wallac, Turku, Finland) were added to air-dried filters and GABAR bound [^3H]muscimol radioactivity determined in a Hidex 600 SL liquid scintillation counter (Hidex, Turku, Finland).

[2] = test system: native GABARs in δ-KO cerebellar granule cells (CGCs); experiment: Whole-cell patch clamp of δ-KO cerebellar granule cells in brain slices, cumulative concentration-response; assay type: cell-based, mouse; conditions: mean ± SEM; for δ-KO Imax: maximal evoked current at saturating agonist concentration; for EC50: steady-state currents at -70 mV, Hill fit
[3] = test system: native GABARs in WT cerebellar granule cells (CGCs); experiment: Whole-cell patch clamp of WT cerebellar granule cells in brain slices, cumulative concentration-response; conditions: for WT Imax / WT slope (Hill slope) / EC50: WT CGCs, mean ± SEM; for WT Imax: maximal evoked current at saturating agonist concentration; for EC50: read-out: WT EC50, steady-state currents at -70 mV, Hill fit; for CGC GABAR activity: concentrations up to 1 mM
[4] = target: GABARs in δ-KO mouse forebrain membranes; experiment: [3H]muscimol displacement, δ-KO forebrain membranes; assay type: binding; conditions: for IC50: δ-KO forebrain membranes, room temperature, mean ± SD
Protocol: as §1

taurine transporter = test system: taurine transporter; parameters: method as in PMID 512911; conditions: ref [24]; read-out: Km as taurine transporter substrate; cited from earlier work
creatine transporter = test system: creatine transporter; parameters: method as in PMID 35837012; conditions: recombinant (HEK) cell expression; ref [20]; cited from earlier work
α4β3δ receptors = target: α4β3δ receptors; parameters: method as in PMID 30565258; conditions: ref [36], read-out: functional muscimol EC50; cited from earlier work
[5] = test system: recombinantly expressed γ2-GABARs; parameters: method as in PMID 9396785; conditions: ref [48], read-out: functional (EC50) muscimol responses; cited from earlier work
[6] = WT forebrain membranes, room temperature, mean ± SD, read-out: IC50 for [3H]muscimol displacement, WT

IC50 [1, 6]	EC50 [2]	EC50 [3]	IC50 ([4]; 5 nM [3H]muscimol)	SMILES	δ-KO Imax [2]	δ-KO slope (Hill slope) [2]	WT Imax [3]	WT slope (Hill slope) [3]	also measured
3.1 ± 0.7 µM	14 ± 2 µM	4.4 ± 0.9 µM	2.5 ± 0.3 µM	[H]/N=C(/N)NCC(=O)O [GAA, guanidinoacetate]	-50 ± 10 pA	0.94 ± 0.1	-60 ± 18 pA	1.1 ± 0.16	–
–	–	–	–	NCCCC(=O)O [GABA, γ-aminobutyrate]	-65 ± 18 pA	1.1 ± 0.1	-66 ± 5 pA	1.5 ± 0.3	–
36 ± 7 µM	72 ± 10 µM	~32 µM and 32 µM	35 ± 4 µM	NC(N)=NCCS(=O)(=O)O [GES, guanidinoethanesulfonate]	-29 ± 6 pA	0.83 ± 0.2	-35 ± 7 pA	0.89 ± 0.3	Km (taurine transporter): ~150 µM
–	–	–	–	NCc1cc(=O)[nH]o1 [[^3H]muscimol, [Methylene-^3H]muscimol, reference compound]	–	–	–	–	5 nM [3H]muscimol binding, WT ([1]; WT forebrain, specific binding normalized to protein): 265 ± 7 fmol/mg protein; reduction of [3H]muscimol binding in δ-KO forebrain compared with WT ([4]; 5 nM [3H]muscimol, forebrain): ~ 50%; 5 nM [3H]muscimol binding, δ-KO ([4]; δ-KO forebrain, specific binding normalized to protein): 140 ± 5 fmol/mg protein
–	–	–	–	N=C(N)NCCC[C@H](N)C(=O)O [arginine]	–	–	–	–	[3H]muscimol (5 nM) displacement [1]: absence of [^3H]muscimol (5 nM) displacement; CGC GABAR activity [3]: absence of detectable CGC GABAR activity
–	–	–	–	CN(CC(=O)O)C(=N)N [creatine]	–	–	–	–	[3H]muscimol (5 nM) displacement [1]: absence of [^3H]muscimol (5 nM) displacement; EC50 (creatine transporter): ~35 µM; CGC GABAR activity [3]: absence of detectable CGC GABAR activity
–	–	–	–	COc1ccc(-c2ccc(=N)n(CCCC(=O)O)n2)cc1 [gabazine, Gabazine, reference compound]	–	–	–	–	block of agonist-evoked CGC currents ([3]; currents evoked by GAA, β-GPA, γ-GBA, GES in WT and δ-KO CGCs): completely blocked
–	–	–	–	NCc1cc(=O)[nH]o1 [muscimol]	–	–	–	–	EC50 (α4β3δ receptors): ~0.001 µM; EC50 [5]: 1 to 10 µM
–	–	–	–	N=C(N)NCCCC(=O)C(=O)O [α-K-δ-GVA, α-Keto-δ-guanidinovalerate]	–	–	–	–	[3H]muscimol (5 nM) displacement [1]: absence of [^3H]muscimol (5 nM) displacement; CGC GABAR activity [3]: absence of detectable CGC GABAR activity
3.8 µM and ~4 µM	8 µM and 8.2 µM	3.2 ± 0.6 µM	3.6 ± 0.6 µM	[H]/N=C(\N)NCCC(=O)O [β-GPA, β-guanidinopropionate]	-74 ± 19 pA	1.3 ± 0.2	-45 ± 9 pA	0.85 ± 0.1	EC50 (creatine transporter): ~13 µM
8.5 ± 0.9 µM	219 ± 11 µM	~44 µM and 44 µM	26 ± 5 µM	N=C(N)NCCCC(=O)O [γ-GBA, γ-guanidinobutyrate]	-32 ± 7 pA	0.95 ± 0.1	-75 ± 12 pA	0.81 ± 0.1	IC50 ([1]; δ-KO values subtracted from WT values, read-out: δ-specific (WT minus δKO) displacement IC50): 3.5 ± 1.2 µM
